Entries after “also recorded” stand apart in the source; their conditions may differ.
Tests used:
[1] = tested on: TGF-β induced PAI-1 production; assay: TGF-β induced PAI-1 production in HT1080 cells (Western blotting); assay type: cell-based; details: Homo sapiens, HT-1080, TGF-β1 10 ng/mL, 6-hours incubation
Method: After incubating HT1080 cells for 48 hours in the MEM medium containing 10% FBS (Fetal Bovine Serum), the medium was changed to a MEM medium containing 1% FBS, and TGF-β1 (final concentration: 10 ng/mL) only, or TGF-β1 (final concentration: 10 ng/mL) and the test substances were added and incubated. As a control, a culture solution without neither TGF-β1 nor the test substances was prepared. After 6-hours incubation, the culture fluids were collected, and the PAI-1 amounts in the culture fluids were measured by the Western blotting. The PAI-1 amount when TGF-β1 only was added being “100%,” and the PAI-1 amount in the control being “0%,” PAI-1 amounts at each concentration of the test substances (PAI-1 inhibition ratios) were calculated, and the concentrations of the compounds, which inhibited PAI-1 production to 50% (IC50) in amount, were obtained.

[2] = tested on: TGF-β induced PAI-1 production; assay: TGF-β induced PAI-1 production in HepG2 cells (Human Serpin E1/PAI-1 DuoSet); assay type: cell-based
Method: HepG2 cells were seeded on a 96-well culture plate by 2×10^4 cells/well, and were incubated for 24 hours in the MEM medium containing 1% NEAA (Non-Essential Amino Acids), 1 mM pyruvate, and 10% FBS. Then, the medium was changed to a MEM medium containing 1% NEAA, 1 mM pyruvate and 1% FBS, and the cells were further incubated for 24 hours. Subsequently, after the medium was changed to a MEM medium containing 1% NEAA, 1 mM pyruvate and 1% FBS, and then the cells were treated with the test substances (final concentration: 1 μM or 0.1 μM) for one hour, TGF-β1 (final concentration: 1 ng/mL) was added and the cells were further incubated for 24 hours. As controls, a culture solution added TGF-β1 only, and a culture solution cultured without neither the test substances nor TGF-β1 were prepared. After the incubation, the PAI-1 amount was measured using Human Serpin E1/PAI-1 DuoSet (R&D Systems). The PAI-1 amount when treated with TGF-β1 only being “100%”, and the PAI-1 amount when treated without neither the test substances nor TGF-β1 being “0%”, the PAI-1 inhibition ratios of each test substance were calculated.

PAI-1 [3] = assay: PAI-1 concentration in plasma of type II diabetes patients with obesity (Human PAI-1 ELISA Kit); assay type: in vivo; details: 200 mg orally twice a day for 12 weeks, plasma at 2, 4, 8, 12 weeks, FIG. 1
Method: To 10 patients of the type II diabetes with obesity where PAI-1 overproduction was recognized, the compound (1) was administered orally 200 mg each time twice a day (after breakfast and after dinner) for 12 weeks. Blood was collected from each patient just before the administration of the compound (1) and 2, 4, 8, and 12 weeks later, and the PAI-1 concentration in plasma was measured using Human PAI-1 ELISA Kit (AssayPro).

PAI-1 [4] = assay: Immunostaining of PAI-1 expression cells among cells infiltrated in the lung, cigarette smoke exposed guinea pigs; assay type: in vivo, guinea pig
Method: Using the smoking exposure system (INH06-CIGOIA, MIPS Inc.), 6-week old guinea pigs (Std: male Hartley, Japan SLC, Inc.) were exposed to smoke of 40 cigarettes (Peace (Registered Trademark), Japan Tobacco, Inc.) a day (20 cigarettes twice) for 25 continuous days (Chronic Obstructive Pulmonary Disease (COPD) model group: Control group: n=10). To these guinea pigs, from the day of exposure to the smoke of tobacco, the compound (1) (30 mg/kg/day or 100 mg/kg/day) or prednisolone (10 mg/kg/day) was continuously administered orally once a day for 25 days (Compound (1) 30 mg administered group: n=5, Compound (1) 100 mg administered group: n=5, Prednisolone administered group: n=5). Furthermore, as a normal group, guinea pigs (n=5) exposed to air without the administration of the compound (1) and prednisolone were prepared. On the following day of the last exposure, after preparing paraffin sections in the lungs of each guinea pig, collagen was stained by the Masson-trichrome method, and the accumulations of collagen in the alveoli were measured by the area rate with the image analysis.
Next, the above paraffin section was stained by the immunostaining method using an anti PAI-1 antibody (PAI-1H-135; Santa Cruz; 250-fold dilution), and the ratio of PAI-1 expression cells to the total cell numbers infiltrated in the lung was measured. […]

[5] = tested on: cardiac infarction (ischemia-reperfusion) model rats; assay: Fibrosis ratio in left ventricle cardiac muscle, cardiac infarction (ischemia-reperfusion) model rats, Azan-Mallory stain; assay type: in vivo, rat; details: p.o., once a day for 28 days, control 7.5 ± 1.1
Method: After the 8-week old rats (SPF: male SD, Japan SLC, Inc.) were anesthetized with Pentobarbital Sodium, their hearts were exteriorized, and the left anterior descending coronary arteries (LAD) were ligated by a suture needle with a thread. 30 minutes later, the ligations were removed, and the blood was reperfused for 24 hours. After that, the compound (1) (10 mg/kg/day, 30 mg/kg/day, 100 mg/kg/day) was orally administered once a day for 28 continuous days. Moreover, as a control, rats to which the compound (1) was not administered after the reperfusion (cardiac infarction (ischemia-reperfusion) model rats) were prepared. On the 29th day after the reperfusion, after preparing paraffin sections of cardiac muscle in the left ventricle of each rat, Azan-Mallory stain was carried out, the ratios of the stained area occupying the myocardial necrosis distant sites were obtained as the ratios of fibrosis by the image analyses.

[6] = tested on: mustard oil infusion rats (cystitis rat); assay: Bladder fibrosis score, mustard oil infusion rats (cystitis rat), Azan stain; assay type: in vivo; details: 100 mg/kg/day orally for 10 days; control 2.6±0.1; p<0.01 Wilcoxon test
Method: A polyethylene tube was inserted to the urethra of the 7 week-old rats (SPF: male Crj, Charles River Japan, Inc), and 0.4 mL of 5% mustard oil (diluted with liquid paraffin including 20% allyl isothiocyanate) was infused into the bladder. 60 minutes later, after withdrawing the liquid in the bladder with suctioning, the inside of the bladder was rinsed with saline. For 10 days including 3 days before the infusion of the mustard oil and 7 days after the infusion of the mustard oil, the compound (1) (100 mg/kg/day) was orally administered once a day (Compound (1) administered rat: n=6). Furthermore, as a control, mustard oil infusion rats (cystitis rat: n=6) to which the compound (1) was not administered were prepared. On the 8th day after the infusion of the mustard, the bladders were removed to prepare paraffin sections, the degrees of fibrosis were scored by Azan stain, and the evaluations were conducted. For the index of the scoring, those that have no abnormalities to the normal tissues being “1,” those that have minor fibrosis being “2,” those that have mild fibrosis being “3,” those that have moderate fibrosis being “4,” and those that have severe fibrosis being “5” were used. As a result, although the score of the control group was 2.6±0.1, the compound (1) administered group was 2.0±0.2, and a significant difference was confirmed (p<0.01: Wilcoxon test).

[7] = tested on: PAI-1 gene expression induced by PMA; details: J. Immunol., Vol. 165, pp. 3154-3161, 2000; cited from earlier work

O=C(Nc1cc(C(F)(F)F)cc(C(F)(F)F)c1)c1cc(Cl)ccc1O [(2)]
IC50 [1]: 0.005 µM
Inhibition Ratio (PAI-1) ([2]; Compound Concentration: 0.1 μM): 94.8%
Inhibition Ratio (PAI-1) ([2]; Compound Concentration: 1 μM): >90%
IC50 ([2]; Homo sapiens, TGF-β1 1 ng/mL, 24 hours): ~0.05 µM

O=C(Nc1cc(C(F)(F)F)ccc1C(F)(F)F)c1cc(Br)ccc1O [(3)]
IC50 [1]: 0.083 µM
Inhibition Ratio (PAI-1) ([2]; Compound Concentration: 1 μM): >90%

CCCCCCOc1cccc(NC(=O)c2cc(Cl)ccc2O)c1 [(95)]
Inhibition Ratio (PAI-1) ([2]; Compound Concentration: 1 μM): 60.1%

O=C(Nc1ccc(-c2ccccc2)cc1)c1cc(Cl)ccc1O [(96)]
Inhibition Ratio (PAI-1) ([2]; Compound Concentration: 1 μM): 71.0%

O=C(Nc1cc(C(F)(F)F)cc(C(F)(F)F)c1)c1cccc(-c2ccccc2)c1O [(97)]
Inhibition Ratio (PAI-1) ([2]; Compound Concentration: 1 μM): 79.5%

CC(C)c1cccc(C(=O)Nc2cc(C(F)(F)F)cc(C(F)(F)F)c2)c1O [(98)]
Inhibition Ratio (PAI-1) ([2]; Compound Concentration: 1 μM): 42.2%

CC(C)c1cc(Br)cc(C(=O)Nc2cc(C(F)(F)F)cc(C(F)(F)F)c2)c1O [(99)]
Inhibition Ratio (PAI-1) ([2]; Compound Concentration: 0.1 μM): 59.1%
Inhibition Ratio (PAI-1) ([2]; Compound Concentration: 1 μM): 89.4%

Cc1cc(Br)cc(C(=O)Nc2cc(C(F)(F)F)cc(C(F)(F)F)c2)c1O [(100)]
Inhibition Ratio (PAI-1) ([2]; Compound Concentration: 1 μM): >90%

O=C(Nc1cc(C(F)(F)F)cc(C(F)(F)F)c1)c1cc(Br)cc(-c2ccccc2)c1O [(103)]
Inhibition Ratio (PAI-1) ([2]; Compound Concentration: 1 μM): >90%

O=C(Nc1cc(C(F)(F)F)cc(C(F)(F)F)c1)c1ccc(-c2ccccc2)cc1O [(106)]
Inhibition Ratio (PAI-1) ([2]; Compound Concentration: 1 μM): >90%

O=C(Nc1cc(C(F)(F)F)cc(C(F)(F)F)c1)c1cc(Cl)ccc1OC(=O)N1CCOCC1 [Compound (1)]
concentration of PAI-1 in blood (PAI-1 [3]): decreased
total number of the infiltrating cells versus normal group (PAI-1 [4]; compound (1) 100 mg administered group): at the same level
ratio of PAI-1 expression cells to the total number of infiltrating cells in the lung (PAI-1 [4]; oral once a day for 25 days, FIG. 3): decreased; also recorded: improved to the level of the normal group
Fibrosis ratio ([5]; 10 mg/kg): 5.5 ± 0.4%
Fibrosis ratio ([5]; 30 mg/kg): 4.9 ± 0.4%
Fibrosis ratio ([5]; 100 mg/kg): 4.3 ± 0.5%
fibrosis score (1 no abnormalities to 5 severe fibrosis) [6]: 2.0±0.2

C[C@@H]1C[C@@H]([C@H](O)CC2CC(=O)NC(=O)C2)C(=O)[C@@H](C)C1 [cycloheximide]
PAI-1 gene expression induced by PMA [7]: inhibiting substance

Source: US20090239868A1 (priority 2007, published 2009)
